{
  "source": "patent US20260258083A1",
  "about": "“T Cell Engager Masking Molecules” (AMGEN INC., priority 2023, published 2026)",
  "key": {"[1]": {"test": "Mouse pharmacokinetic study, IV (Example 2)", "conditions": "BL/6, mouse, plasma, iv, 1 mg/kg"}, "[2]": {"system": "FLT3×CD3 TCE (SEQ ID NO: 93)", "test": "Association kinetics by KinExA (Table 5)", "assay_type": "binding", "conditions": "for koff: KinExA, FLT3×CD3 TCE; for fold-koff / fold-kon: relative to the parent CD3ε epitope peptide", "method": "(§1) • 1. Preparation of NHS-activated sepharose fast-flow beads: • 2. Fast flow sepharose suspension in 100% IPA, washed twice with milliQ H20, mild centrifugation to pool beads in between wash steps. • 3. Equilibrated in 0.15 M NaBO3, pH=8.5 buffer • 4. Added 80 mM PDEA to activate the resin for thiol exchange, 10 mins, r.t. • 5. Equilibrated resin with Hepes Buffered Saline-P (0.01 M HEPES pH 7.4, 0.15 M NaCl, 0.005% v/v Surfactant P2), pH 7.4 binding buffer • 6. Added 30 μg/mL of binding peptide, […] (SEQ ID NO; 297) or pGlu-[…] (SEQ ID NO: 300), reaction for 1 hr to functionalize resin. • 7. Quench with 10 mM L-Cys for 1 hour. • 8. Constant Binding Partner was FLT3×CD3 TCE (SEQ ID NO: 93), MW 105720, 3.2 mg/mL 31.21 uM was diluted to 333 pM and the pGlu-[…] peptide or pGlu-[…]-PEG (Pep-PEG v2) were titrated from 1 uM or 400 nM down to 2.3 pM concentrations relative to effective peptide molarity.\nAssociation Kinetics by KinExA"}, "[3]": {"molecular_target": "FLT3×CD3 TCE (SEQ ID NO: 93)", "test": "Equilibrium binding affinity measurement by KinExA (Table 5)", "conditions": "for Kd: KinExA, FLT3×CD3 TCE as constant binding partner; for fold-Kd: affinity gain relative to the parent CD3ε epitope peptide", "method": "Equilibrium Binding Affinity Measurement by KinExA\nas §1"}, "[4]": {"system": "anti-CD3ε paratope of a CD3ε binding domain of a TCE", "test": "Affinity class of the binding peptide of the masking molecule", "from_the_text": "The exact value may vary with the respective TCE. However, the […]"}, "[5]": {"system": "DLL3xCD3 TCE SEQ ID NO 104", "test": "SPR assay of immobilized peptides binding with TCE", "conditions": "immobilized peptide, Kinetic 1:1 Binding", "method": "(§2) Example 14: SPR Assay of Immobilized Peptides Binding with TCE\n(§3) A cytiva CM5 chip was first functionalized with PDEA (2-(2pyridinyldithio)ethaneamine) under standard ((1-ethyl-3-(3-dimethylaminopropyl)carbodiimide)/(N-hydroxysuccinimide) EDC/NHS coupling conditions where the PDEA is dissolved to 20 mM and 1 M NaCl in 0.1 M sodium acetate pH 4.3. Binding peptides were dissolved to 50- or 100-ug/mL respectively in PBST, pH 6.5, and coupling times were optimized to yield the desired surface density."}, "[6]": {"system": "CLDN6xCD3 TCE SEQ ID NO 340", "test": "SPR assay of immobilized peptides binding with TCE", "conditions": "immobilized peptide, Kinetic 1:1 Binding", "method": "as §2, §3"}, "[7]": {"system": "Steap 1xCD3 TCE SEQ ID NO 373 + 374 + 375", "test": "SPR assay of immobilized peptides binding with TCE", "conditions": "immobilized peptide, Kinetic 1:1 Binding", "method": "as §2, §3"}, "[8]": {"system": "FLT3xCD3 TCE SEQ ID NO 93", "test": "SPR assay of immobilized peptides binding with TCE", "conditions": "immobilized peptide, Kinetic 1:1 Binding", "method": "as §2, §3"}, "[9]": {"system": "CDH3-CD3-MSLN-CD3 TCE (SEQ ID NO 255)", "test": "SPR assay of immobilized peptides binding with TCE", "conditions": "bivalent analyte model", "method": "as §2, §3"}, "[10]": {"conditions": "masking molecules tested with respect to TCE of SEQ ID NO 255 (Table 20)"}, "[11]": {"conditions": "masking molecules of Example 12"}},
  "note": "Where a SMILES comes first, the peptide text is derived from it. Where no end group is shown, it is not given here. [ ]: non-standard residue; d: D form. pGlu = O=C1CC[C@@H](C(=O)O)N1; P(Dap) = not defined here",
  "data": [
    {"compound": "CSCC[C@H](NC(=O)CNC(=O)[C@H](CCCCN)NC(=O)CNC(=O)[C@H](CCSC)NC(=O)[C@H](CCC(=O)O)NC(=O)[C@H](CCC(=O)O)NC(=O)[C@H](CC(N)=O)NC(=O)CNC(=O)[C@H](CC(=O)O)NC(=O)[C@@H](N)CCC(N)=O)C(=O)N[C@@H](CCC(=O)O)C(=O)N[C@@H](CCC(=O)O)C(=O)N[C@@H](CC(N)=O)C(=O)NCC(=O)N[C@@H](CC(=O)O)C(=O)N[C@@H](CCC(N)=O)C(=O)O", "note": "(H-QDGNEEMGKGMEENGDQ-OH)", "values": [
      {"measurement": "half-life", "setting": "[1]", "value": "3 to 10", "unit": "min"}
    ]},
    {"compound": "CSCC[C@H](NC(=O)CNC(=O)[C@H](CCCCN)NC(=O)CNC(=O)[C@H](CCSC)NC(=O)[C@H](CCC(=O)O)NC(=O)[C@H](CCC(=O)O)NC(=O)[C@H](CC(N)=O)NC(=O)CNC(=O)[C@H](CC(=O)O)NC(=O)[C@@H](N)CCC(N)=O)C(=O)N[C@@H](CCC(=O)O)C(=O)N[C@@H](CCC(=O)O)C(=O)N[C@@H](CC(N)=O)C(=O)NCC(=O)N[C@@H](CC(=O)O)C(=O)N[C@@H](CCC(N)=O)C(=O)N[C@@H](CS)C(=O)O", "note": "(H-QDGNEEMGKGMEENGDQC-OH; N-terminus and C-terminus assumed)", "values": [
      {"measurement": "half-life", "setting": "[1]", "value": "3 to 10", "unit": "min"}
    ]},
    {"compound": "(QDGNEEMG)3K", "values": [
      {"measurement": "koff", "setting": "[2]", "value": 0.00016, "unit": "s⁻¹"}
    ]},
    {"compound": "QDGNEEMG [reference compound]", "values": [
      {"measurement": "koff", "setting": "[2]", "value": 0.0248, "unit": "s⁻¹"}
    ]},
    {"compound": "QDGNEEMG-K(Nϵ)-GMEENGDQ (chain 1 QDGNEEMGK; also: branched: chains joined through a Lys, chain 2 on Lys Nε, direction not given here)", "values": [
      {"measurement": "koff", "setting": "[2]", "value": 0.00447, "unit": "s⁻¹"},
      {"measurement": "fold-koff", "setting": "[2]", "value": 0.25},
      {"measurement": "fold-kon", "setting": "[2]", "value": 5.38},
      {"measurement": "Kd", "setting": "[3]", "value": 1.03, "unit": "nM"},
      {"measurement": "fold-Kd", "setting": "[3]", "value": 21.65}
    ]},
    {"compound": "QDGNEEMG-P(Dap)-GMEENGDQ (chain 1 QDGNEEMG-{P(Dap)}; reading uncertain; also: chains linked via Dap residue 'P(Dap)')", "values": [
      {"measurement": "koff", "setting": "[2]", "value": 0.0075, "unit": "s⁻¹"},
      {"measurement": "fold-koff", "setting": "[2]", "value": 0.30},
      {"measurement": "fold-kon", "setting": "[2]", "value": 6.36},
      {"measurement": "Kd", "setting": "[3]", "value": 1.1, "unit": "nM"},
      {"measurement": "fold-Kd", "setting": "[3]", "value": 32.55}
    ]},
    {"compound": "QDGNEEMGGMEENGDQ", "values": [
      {"measurement": "koff", "setting": "[2]", "value": 0.00471, "unit": "s⁻¹"}
    ]},
    {"compound": "QDGNEEMGK", "values": [
      {"measurement": "koff", "setting": "[2]", "value": 0.0179, "unit": "s⁻¹"}
    ]},
    {"compound": "QDGNEEMGKQDGNEEMG", "values": [
      {"measurement": "koff", "setting": "[2]", "value": 0.00497, "unit": "s⁻¹"}
    ]},
    {"compound": "QDGNEEMGQDGNEEMG", "values": [
      {"measurement": "koff", "setting": "[2]", "value": 0.00586, "unit": "s⁻¹"}
    ]},
    {"compound": "pE-DGEEELKGK (PEG)-OH ([pGlu]DGEEELKGK(PEG 20 kDa)-OH; not fully specified) [79921-1]", "values": [
      {"measurement": "Affinity", "setting": "[4]; [10]", "value": "Intermediate (an affinity of about 10 to 150, preferably 10 to 100 mM is considered of “high” affinity)"}
    ]},
    {"compound": "pE-DGEEELKGK (mPEG)-OH ([pGlu]DGEEELKGK(mPEG)-OH; numbers in words are those of the source; also: Lys side chain linked via thioether to 20 kDa mPEG) [82138-1]", "values": [
      {"measurement": "Affinity", "setting": "[4]; [10]", "value": "Intermediate (an affinity of about 10 to 150, preferably 10 to 100 mM is considered of “high” affinity)"}
    ]},
    {"compound": "pE-DGNEELKGC (PEG)-OH (N-terminal pyroglutamate, 20K PEG on Cys) [71203-2]", "values": [
      {"measurement": "Affinity", "setting": "[4]; [11]", "value": "High (an affinity indicated as Kd of about 0.05 to about 10 nM, typically 0.1 pM to 10 nM or 500 pM to 5 nM is considered of “high” affinity)"},
      {"measurement": "Affinity", "setting": "[4]; [10]", "value": "High (an affinity indicated as Kd of about 0.05 to about 10 nM, typically 0.1 pM to 10 nM or 500 pM to 5 nM is considered of “high” affinity)"}
    ]},
    {"compound": "pE-DGNEELKGK (PEG)-OH ([pGlu]DGNEELKGK-OH; not fully specified (residue 10); printed as pE-DGNEELKGK (PEG)-OH) [73135-2]", "values": [
      {"measurement": "Affinity", "setting": "[4]; [11]", "value": "High (an affinity indicated as Kd of about 0.05 to about 10 nM, typically 0.1 pM to 10 nM or 500 pM to 5 nM is considered of “high” affinity)"},
      {"measurement": "Affinity", "setting": "[4]; [10]", "value": "High (an affinity indicated as Kd of about 0.05 to about 10 nM, typically 0.1 pM to 10 nM or 500 pM to 5 nM is considered of “high” affinity)"}
    ]},
    {"compound": "pGlu-DGNEELKGC ([pGlu]DGNEELKGC; also: entry DGNEELKGC marks its position 1 as pyroglutamic acid)", "values": [
      {"measurement": "ka", "setting": "[5]", "value": "2.14e+06", "unit": "M⁻¹ s⁻¹"},
      {"measurement": "kd", "setting": "[5]", "value": 0.00279, "unit": "s⁻¹"},
      {"measurement": "ka", "setting": "[6]", "value": "2.72e+06", "unit": "M⁻¹ s⁻¹"},
      {"measurement": "kd", "setting": "[6]", "value": 0.0038, "unit": "s⁻¹"},
      {"measurement": "ka", "setting": "[7]", "value": "2e+06", "unit": "M⁻¹ s⁻¹"},
      {"measurement": "kd", "setting": "[7]", "value": 0.00514, "unit": "s⁻¹"},
      {"measurement": "ka", "setting": "[8]", "value": "1.88e+06", "unit": "M⁻¹ s⁻¹"},
      {"measurement": "kd", "setting": "[8]", "value": 0.0024, "unit": "s⁻¹"},
      {"measurement": "fast component for the off-rate", "setting": "[9]", "value": 0.0212, "unit": "s⁻¹"},
      {"measurement": "fast component of the on-rate", "setting": "[9]", "value": "2.42e+06", "unit": "M⁻¹ s⁻¹"}
    ]}
  ]
}
